# US10781262B2, “Combination therapy of T cell activating bispecific antigen binding molecules and PD-1 axis binding antagonists” (Hoffmann-La Roche Inc., priority 2014, dated 2020)
# Key:
# [1] = system: T cells in EpCAM positive tumor digests or malignant effusions; assay: Ex vivo treatment of tumor samples with catumaxomab; assay type: cell-based, human; conditions: 10 ng/ml, 24h; 4 NSCLC tumor digests
# Description: The trifunctional TCB catumaxomab (Removab®) was obtained from Fresenius. The experimental conditions were similar as indicated above for FolR1-TCB. Briefly, EpCAM positive tumor digests or malignant effusions were cultured in the presence or absence of catumaxomab at a concentration of 10 ng/ml for 24h. Analysis of CD8÷ and CD4^+ positive T cells (CD45^+CD3+) was performed as described above.
# To determine to which extent catumaxomab induces T cell activation and to confirm the findings described above using a second, independent T cell bispecific molecule, 4 tumor digests from patients with NSCLC were exposed to catumaxomab, a trifunctional bispecific antibody recognizing CD3 on T cells and EpCAM on tumor cells. Then, T cells were characterized by flow cytometry for expression of activation markers and T cell effector functions (FIG. 17A-D). […] Accordingly, the baseline expression of inhibitory receptors differed between the patients (FIG. 17E-H).
# [2] = system: FolR1 expressing tumor cells and FolR1 negative cell line MKN-45; assay: Flow cytometry binding to tumor cells with different FolR1 expression levels; set-up: species or system human
# Excerpt: FIGS. 6A-E depict graphs summarizing binding of FolR1 IgGs to cells with different FolR1 expression levels. […] DP47 IgG was included as isotype control and MKN-45 were included as FolR1 negative cell line.
# The used panel of tumor cells contains FolR1 high, intermediate and low expressing tumor cells and a FolR1 negative cell line.
# The amount of bound construct is proportional to the FolR1 expression level and there is still good binding of the constructs to the FolR1 low cell line HT-29 detectable. […] DP47 TCB is an untargeted TCB and was prepared as described in WO2014/131712.
# [3] = system: SKOV3 cells; assay: T cell mediated killing (LDH release); assay type: cell-based, human; conditions: SKOV3 and HT-29 cells
# Description: (§1) FIGS. 7A-L depict graphs summarizing T cell mediated killing of HT-29 and SKOV3 cells. FolR1 TCBs were used to test T cell mediated killing of HT-29 and SKOV3 tumor cells and upregulation of activation marker on T cells upon killing. […] DP47 TCB was included as negative control. After 48 h incubation upregulation of the activation marker CD25 and CD69 on CD8 T cells and CD4 T cells upon killing of SKOV3 (FIGS. 7E-H) or HT-29 (FIG. 7I-L) tumor cells was assessed by flow cytometry.
# (§2) Overall killing of SKOV3 cells was higher compared to HT-29 which reflects the higher expression levels of FolR1 on SKOV3 cells (FIGS. 7A-D). In line with this, a strong upregulation of the activation marker CD25 and CD69 on CD4^+ T cells and CD8^+ T cells was detected. Activation of T cells was very similar in the presence of SKOV3 cells and HT-29 cells.
# [4] = system: CD4 and CD8 T cells with SKOV3 cells; assay: T cell activation upon killing (CD25, CD69, flow cytometry); assay type: cell-based, human; conditions: SKOV3 and HT-29 cells
# Description: as §1, §2
# [5] = system: T cells in FolR1 positive tumor digests or malignant effusions; assay: Ex vivo treatment of tumor samples with FolR1-TCB (T cell activation); assay type: cell-based, human
# Description: FolR1 positive tumor digests or malignant effusions were thawed, washed and plated in 96-well flat bottom cell culture plates (BD Falcon) with a density of 3×10^5 cells/200 μl/well in complete medium (DMEM+Sodium Pyruvate (1 mM)+MEM non essential AA (1×)+L-Glutamin (2 mM)+Penicillin/Streptomycin ([…])+2-Mercaptoethanol ([…])+Ciproxin (1 mg/ml)+10% human Serum). The samples were cultured in the presence or absence of FolR1-TCB or DP47 TCB at a concentration of 2 nM for 24h. Activation of CD8+ and CD4^+ T cells (CD45^+CD3+) upon FolR1-TCB treatment was determined by multicolor flow cytometry by measuring the expression of the cell surface markers CD25, CD69, CD137, ICOS, PD-1 and Tim-3. Furthermore the expression of granzyme B and IFN-γ was determined by intracellular staining.
# To determine FolR1-TCB induced T cell activation, tumor samples were cultured in the presence or absence of FolR1-TCB or the control TCB DP-47. Then, T cells were characterized by multicolor flow cytometry for expression of activation markers and T cell effector functions, as described above. […] FolR1-TCB-induced perforin secretion was highly variable in TILs, and severely impaired in a subset of patients (FIG. 12N).
# [6] = system: CFSE-labelled Skov3 cells; assay: Killing assay with tumor samples; assay type: cell-based, human
# Description: To determine the FolR1-TCB induced tumor cell killing, 3×10^4 CFSE-labelled Skov3 cells were cocultured with tumor samples in the presence or absence of FolR1-TCB at a concentration of 2 nM for 24h in 96-well flat bottom cell culture plates. The E:T ratio (E: effector CD45^+CD3^+ cells; T: target FolR1^+ cells from tumor and added Skov3 cells) was adjusted to 1:1 in each well and the cell number of the added tumor samples was calculated for each sample according to prior characterization by flow cytometry. Cell death of Skov3 cells was determined by flow cytometry by measuring activated caspase 3 and the live/dead marker Live/Dead-near-IR. The assay was performed in triplicates. The FolR1-TCB mediated killing was calculated according to the following equation: % of specific killing=100−[(% of Skov3 live cells in FolR1-TCB treated sample/% of Skov3 live cells in untreated sample)×100].
# To compare the FolR1-TCB-induced killing capacity of T-cells between tumor samples, and to exclude additional factors suppressing T-cell functionality, such as expression of PD-L1 on the tumor cells, we exogenously added CFSE-labeled FolR1^+ Skov3 cells to the tumor digests and adjusted the E:T ratio to 1:1, essentially as described above. We then measured the FolR1-TCB-induced killing of CFSE-labeled Skov3 cells, which allowed us to also include FolR1^− tumor samples into the analysis. […]
# [7] = system: CD8^+ T-cells with FolR1^+ ovarian cancer cell line Skov3; assay: PBMCs from healthy donors co-cultured with Skov3 cells, FolR1-TCB; assay type: cell-based, human; conditions: 0.6 pM to 2 nM for 24 h
# Description: FIGS. 40A-C show activation of CD8^+ T-cells upon exposure to increasing concentrations of FolR1-TCB. PBMCs were co-cultured with Skov3 cells for 24 h in the presence or absence of FolR1-TCB or the unspecific control DP-47-TCB. […] Shaded histogram: isotype control; open histogram: anti-FolR1-antibody. FIG. 40B: The expression of the activation markers CD25, CD137, and ICOS on CD8^+ T-cells was determined by flow cytometry.
# To assess the effect of FolR1-TCB on T-cell activation peripheral blood mononuclear cells (PBMCs) from healthy donors were co-cultured with the FolR1^+ ovarian cancer cell line Skov3 (FIG. 40A). […] In addition, T-cells secreted IL-2, IFN-γ, and TNF.
# [8] = system: T cells in tumor digests; assay: Polyclonal stimulation with anti-CD3/CD28 antibodies and PD-1 blockade; assay type: cell-based, human; conditions: 10 μg/ml, 24 hrs
# [9] = system: T cells in FolR1^+ tumor digests or malignant effusions; assay: FolR1-TCB with PD-1 blockade in tumor digests or malignant effusions; assay type: cell-based, human; conditions: combination with FolR1-TCB
# Description: FIG. 38A-D: FolR1^+ tumor digests or malignant effusions were cultured for 24 h with FolR1-TCB in the presence or absence of a PD-1 blocking antibody. […] The increase in cytokine secretion upon combined FolR1-TCB and anti-PD-1 treatment compared with FolR1-TCB alone was determined in PD-1^hi scarce and abundant tumors. FIG. 38E: Tumor digests or malignant effusions were co-cultured with exogenously added fluorescently labeled Skov3 cells at an E:T ratio of 1:1 for 24 h in the presence or absence of a PD-1 blocking antibody and FolR1-TCB. The increase in specific killing by the anti-PD-1 antibody was compared in PD-1^hi scarce and abundant tumors. p-values were calculated using the unpaired Mann-Whitney test.
# As the level of PD-1 expression on TILs correlates with the efficacy of FolR1-TCB, we analyzed whether blockade of the PD-1/PD-L1 axis in combination with FolR1-TCB treatment might be able to restore T-cell function.
substance,measurement,setting,value
catumaxomab,catumaxomab induced T cell activation (in words),[1],striking heterogeneity in catumaxomab induced T cell activation
"DP47 TCB: untargeted TCB, negative control, prepared as described in WO2014/131712",binding to panel of tumor cell lines,[2],no binding
same,T cell mediated killing (in words),[3],does not induce any killing
same,upregulation of CD25 and CD69 on T cells (in words),[4],no significant upregulation of CD25 and CD69 on T cells
same,T cell activation in tumor samples (in words),[5],did not induce any T cell activation
same,tumor cell killing (in words),[6],did not induce any tumor cell killing
same,activation of CD8^+ T-cells (in words),[7],did not induce any T-cell activation
nivolumab: PD-1 blocking antibody,restoration of T cell effector function by PD-1 blockade (in words),[8],"could restore T cell effector function such as production and secretion of IL-2, IFN-γ and TNF-α only in some patients"
same,"secretion of IFN-γ, TNF, IL-2 and perforin upon combined treatment with FolR1-TCB (in words)",[9]; 24 h,could be increased only in some of the PD-1^hi scarce tumors
same,cytotoxic tumor cell killing upon additional PD-1 blockade (in words),[9]; Skov3 cells E:T 1:1,could neither be improved
